Data on 3 molecules can be found in ChEMBL document CHEMBL1148515, “Enantiomerically pure 1,4-benzodiazepine-2,5-diones as Hdm2 antagonists” (Bioorg Med Chem Lett, 2006).

Holding throughout (type): functional
Assay [1] concerns JAR. Put plainly: Increase in caspase3/7 production in human JAR cells at 25 uM relative to control.
The test system of assay [2] is JAR. Put plainly: Increase in caspase3/7 production in human JAR cells at 50 uM relative to control.
The subject of assay [3] is JAR. Put plainly: Increase in caspase3/7 production in human JAR cells at 10 uM relative to control.

In the case of `C[C@H](c1ccc(Cl)cc1)N1C(=O)c2cc(I)ccc2N(CCCCC(=O)O)C(=O)[C@@H]1c1ccc(Cl)cc1`, the Activity in assay [1] amounted to 1.37; in assay [2], 1.97; in assay [3], 0.97.

For the molecule `COCCOCCN1C(=O)[C@H](c2ccc(Cl)cc2)N([C@H](C)c2ccc(Cl)cc2N)C(=O)c2cc(I)ccc21`, the Activity in assay [1] is 2.84; in assay [2], 2.92; in assay [3] it was 1.29.

Regarding `C[C@H](c1ccc(Cl)cc1N)N1C(=O)c2cc(I)ccc2N(CCN2CCOCC2)C(=O)[C@@H]1c1ccc(Cl)cc1`, the Activity in assay [1] came to 2.87; in assay [2], 2.89; in assay [3], 0.9.
